Reference: PubChem BioAssay AID2060360 (Molecular Pharmacology Branch, DTP, NCI, 2025)
Where “and” joins values, the source holds several entries; their conditions need not be identical. Equal entries are not always repeated.

System: 282377-053-R-J1-PDC tumor spheroids, viability
Assay: Anticancer human tumor 282377-053-R-J1-PDC patient-derived colon adenocarcinoma cell line growth inhibition [TAK]
Conditions: spheroids with HUVEC and MSC; for viability, T/C: stronger effect = lower value; active = viability on the fitted dose curve at most 10% of control; inactive = the rest
Description: Combinatorial screen of targeted agents with TAK-243 and ipatasertib in multi-cell type tumor spheroids
A high-throughput screen of multi-cell type tumor spheroids was designed to identify active combinations of targeted small molecules and TAK-243 or ipatasertib. Complex spheroids include a stromal component modeled by human endothelial cells (HUVEC) and fibroblasts modeled by human mesenchymal stem cells (MSCs). The concentration ranges selected for each drug and investigational agent were based upon clinically achievable concentrations if the clinical Cmax of the agent was known.
Compounds. The drugs and investigational agents: TAK-243 (785004), ipatasertib (767898), everolimus (733504), selumetinib (741078), bortezomib (756655), trametinib (758246), ixazomib (758254), vemurafenib (761431), dabrafenib (764134), sapanisertib (764658), alpelisib (765974), and copanlisib (816437), were obtained from the National Cancer Institute (NCI) Developmental Therapeutics Program Chemical Repository. The FDA-approved anticancer drug set is available from the NCI Developmental Therapeutics Program. […] The stock solutions were prepared in dimethyl sulfoxide (DMSO, Sigma-Aldrich, St. Louis, MO, cat. D2650) at 800-fold the tested concentration and stored at -70 degrees C prior to their use. All drugs and investigational agents were tested over a range starting from a high concentration at or near the clinical Cmax and decreasing in half-log increments. If the clinical Cmax for an agent had not been determined, the highest concentration tested was 10 microM.
NCI60 Cell Culture. NCI60 cell lines were obtained from the NCI Developmental Therapeutics Program Tumor Repository. For each lot of cells, the Repository performed Applied Biosystems AmpFLSTR Identifiler testing with PCR amplification to confirm consistency with the published Identifier STR profile for each cell line. Cells were kept in continuous culture for no more than 20 passages. The optimal seeding densities for each of the cell lines at each time point assessed were determined prior to performing the concentration response studies. Briefly, the NCI60 human tumor lines were grown as monolayers in RPMI 1640 medium supplemented with 10% FBS and 2 mmol/L L-glutamine.
An additional 2 lines were from the NCI60 cell line panel including melanomas, MALME-3M and SK-MEL-2. Pooled donor human umbilical vein endothelial cells (HUVEC, Lonza, cat. CC-2519) and human mesenchymal stem cells (hMSC, Lonza, cat. PT-2501) were purchased from Lonza (Walkersville, MD).
PDMR cell lines were grown in complete medium (DC medium): Dulbecco's modified Eagle's medium (DMEM)/F12 supplemented with 5% fetal bovine serum (FBS), 2 mM L-glutamine, 100 U/mL penicillin and 100 µg/ml streptomycin, 0.4 µg/ml hydrocortisone, 10 ng/ml epidermal growth factor (EGF) recombinant human protein, 24 µg/mL adenine, and 0.1 mg/mL primocin. During culture from frozen stock vials, PDMR cells were cultured in the same medium containing 10 µM Y-27632 (see Table 3). The PDCs were cultured in complete DMEM/F12 media without 10 microM Y-27632 dihydrochloride for at least two passages prior to the screen. The pooled donor HUVEC and hMSC were cultured in endothelial cell growth medium 2 (PromoCell, Heidelberg, Germany, cat. C-22011) and mesenchymal stem cell growth medium 2 (PromoCell, cat. C-28009), respectively. For all experiments, HUVEC and hMSC were used at passages </=5.
For the pre-screen, cell seeding densities were determined from a titration spanning the range from 5,000 to 313 cells per well. The mct-spheroids including 60% malignant cells, 25% HUVEC and 15% MSC dispensed as a mixture into U-bottom Ultra-Low Attachment 384-well plates (Corning, NY)
High-throughput Drug Combination Screening.
Prior to their inoculation into 384-well plates, malignant cells, HUVEC, and hMSC were removed from T flasks using TrypLE express (Thermo Fisher Scientific, cat. 12605036) and harvested by centrifugation for 5 min at 233 x g. […]

[1] = curve of first compound, second compound 0.3 µM
[2] = curve of first compound, second compound 0.949 µM
[3] = curve of first compound, second compound 3 µM
[4] = curve of first compound, second compound 9.49 µM
[5] = curve of first compound, second compound 30 µM
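Also: spheroids exposed to drugs for seven days before readout.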

CC(=O)Nc1cccc(-n2c(=O)n(C3CC3)c(=O)c3c(Nc4ccc(I)cc4F)n(C)c(=O)c(C)c32)c1 + CC(C)NCC(C(=O)N1CCN(c2ncnc3c2C(C)CC3O)CC1)c1ccc(Cl)cc1
1.54 nM: IC50 [4]
1.95 nM: IC50 [2]
0.516 nM: IC50 [5]
inactive: viability, T/C (second compound 0.3 µM, first compound 94.9 pM) 96% | viability, T/C (second compound 0.3 µM, first compound 0.0003 µM) 79% | viability, T/C (second compound 0.3 µM, first compound 0.000949 µM) 67.5% | viability, T/C (second compound 0.3 µM, first compound 0.003 µM) 49.2% | viability, T/C (second compound 0.3 µM, first compound 0.00949 µM) 24.9% | viability, T/C (second compound 0.3 µM, first compound 0.03 µM) 12.4% | viability, T/C (second compound 0.949 µM, first compound 94.9 pM) 86.8% | viability, T/C (second compound 0.949 µM, first compound 0.0003 µM) 76.9% | viability, T/C (second compound 0.949 µM, first compound 0.000949 µM) 55.2% | viability, T/C (second compound 0.949 µM, first compound 0.003 µM) 49.3% | viability, T/C (second compound 0.949 µM, first compound 0.00949 µM) 24.8% | viability, T/C (second compound 0.949 µM, first compound 0.03 µM) 11.8% | viability, T/C (second compound 3 µM, first compound 94.9 pM) 78.2% | viability, T/C (second compound 3 µM, first compound 0.0003 µM) 70.6% | viability, T/C (second compound 3 µM, first compound 0.000949 µM) 53.6% | viability, T/C (second compound 3 µM, first compound 0.003 µM) 40.8% | viability, T/C (second compound 3 µM, first compound 0.00949 µM) 26.7% | viability, T/C (second compound 3 µM, first compound 0.03 µM) 13.7% | viability, T/C (second compound 9.49 µM, first compound 94.9 pM) 75.4% | viability, T/C (second compound 9.49 µM, first compound 0.0003 µM) 71.7% | viability, T/C (second compound 9.49 µM, first compound 0.000949 µM) 56.8% | viability, T/C (second compound 9.49 µM, first compound 0.003 µM) 38.4% | viability, T/C (second compound 9.49 µM, first compound 0.00949 µM) 25.9% | viability, T/C (second compound 9.49 µM, first compound 0.03 µM) 12.4% | viability, T/C (second compound 30 µM, first compound 94.9 pM) 64% | viability, T/C (second compound 30 µM, first compound 0.0003 µM) 58.6% | viability, T/C (second compound 30 µM, first compound 0.000949 µM) 41.6% | viability, T/C (second compound 30 µM, first compound 0.003 µM) 27% | viability, T/C (second compound 30 µM, first compound 0.00949 µM) 22.9% | viability, T/C (second compound 30 µM, first compound 0.03 µM) 12.3%
2.49 nM: IC50 [1]
1.44 nM: IC50 [3]

CCCS(=O)(=O)Nc1ccc(F)c(C(=O)c2c[nH]c3ncc(-c4ccc(Cl)cc4)cc23)c1F + CC(C)NCC(C(=O)N1CCN(c2ncnc3c2C(C)CC3O)CC1)c1ccc(Cl)cc1
6860 nM: IC50 [2]
5950 nM: IC50 [4]
7810 nM: IC50 [1]
2990 nM: IC50 [5]
7560 nM: IC50 [3]
inactive: viability, T/C (second compound 0.3 µM, first compound 0.316 µM) 79.5% | viability, T/C (second compound 0.3 µM, first compound 1 µM) 79.8% | viability, T/C (second compound 0.3 µM, first compound 3.16 µM) 82.6% | viability, T/C (second compound 0.3 µM, first compound 10 µM) 24.6% | viability, T/C (second compound 0.3 µM, first compound 31.6 µM) 1.89% | viability, T/C (second compound 0.3 µM, first compound 100 µM) 98.5% | viability, T/C (second compound 0.949 µM, first compound 0.316 µM) 76.7% | viability, T/C (second compound 0.949 µM, first compound 1 µM) 79.9% | viability, T/C (second compound 0.949 µM, first compound 3.16 µM) 84.2% | viability, T/C (second compound 0.949 µM, first compound 10 µM) 7.58% | viability, T/C (second compound 0.949 µM, first compound 31.6 µM) 2.94% | viability, T/C (second compound 0.949 µM, first compound 100 µM) 95.3% | viability, T/C (second compound 3 µM, first compound 0.316 µM) 76.8% | viability, T/C (second compound 3 µM, first compound 1 µM) 73.7% | viability, T/C (second compound 3 µM, first compound 3.16 µM) 80.5% | viability, T/C (second compound 3 µM, first compound 10 µM) 33.4% | viability, T/C (second compound 3 µM, first compound 31.6 µM) 1.38% | viability, T/C (second compound 3 µM, first compound 100 µM) 89.3% | viability, T/C (second compound 9.49 µM, first compound 0.316 µM) 72.4% | viability, T/C (second compound 9.49 µM, first compound 1 µM) 70.1% | viability, T/C (second compound 9.49 µM, first compound 3.16 µM) 71.3% | viability, T/C (second compound 9.49 µM, first compound 10 µM) 10.9% | viability, T/C (second compound 9.49 µM, first compound 31.6 µM) 10.1% | viability, T/C (second compound 9.49 µM, first compound 100 µM) 76.7% | viability, T/C (second compound 30 µM, first compound 0.316 µM) 57.4% | viability, T/C (second compound 30 µM, first compound 1 µM) 61% | viability, T/C (second compound 30 µM, first compound 3.16 µM) 49.5% | viability, T/C (second compound 30 µM, first compound 10 µM) 9.48% | viability, T/C (second compound 30 µM, first compound 31.6 µM) 0.93% | viability, T/C (second compound 30 µM, first compound 100 µM) 46.8%

CC(C)(C)c1nc(-c2cccc(NS(=O)(=O)c3c(F)cccc3F)c2F)c(-c2ccnc(N)n2)s1
inactive: viability, T/C (compound 0.0316 µM) 85.2% and 87.2% | viability, T/C (compound 0.1 µM) 84.1% and 87.2% | viability, T/C (compound 0.316 µM) 78.2% and 83.8% | viability, T/C (compound 1 µM) 78.9% and 81.5% | viability, T/C (compound 3.16 µM) 79% and 76% | viability, T/C (compound 10 µM) 69.4% and 69.9%
> 10000 nM: IC50 (curve of compound)
